How the values were obtained:
Assay type in all cases: cell-based
[1] = test system: chondrogenic progenitor ATDC5 cells; experiment: Detection of glycosaminoglycan by Alcian blue staining (absorbance at 620 nm); conditions: day 24 of culture
Protocol: (§1) Using chondrogenic progenitor ATDC5 cells, the effects of liquiritin on the differentiation of chondrogenic progenitor cells into chondrocytes, proliferation of chondrocytes, and production of cartilaginous matrix were investigated as follows.
(§2) ATDC5 cells (obtained from RIKEN BioResource Research Center) were seeded at 1×10^4 cells/well in a microplate containing 0.5 mL of Dulbecco's modified Eagle medium (DMEM)/Ham's F-12 medium (manufactured by FUJIFILM Wako Pure Chemical Corporation), and cultured at 37° C. in the presence of 5% by volume carbon dioxide. […]
On day 24 of culture, the cells were fixed with 95% by volume ethanol, and then stained with Alcian blue staining solution (prepared with 1% Alcian blue and 3% acetic acid aqueous solution, pH=2.5), and glycosaminoglycan was detected.
Then, the Alcian blue dye of the stained cultured cells was solubilized with 6M guanidine hydrochloride, and the absorbance at 620 nm was measured using a plate reader (Infinite 200 PRO, manufactured by Tecan Japan Co., Ltd., for each liquiritin concentration and control, n=4). The measurement results are shown in FIG. 1 as meantstandard deviation based on relative values when the absorbance in the control is 100. […]

[2] = test system: chondrogenic progenitor ATDC5 cells; experiment: Content of DNA in cell digestive fluid as index of cell number; conditions: day 24 of culture; at 10 μM and 20 μM significant at P<0.01 vs control (FIG. 3)
Protocol: as §1
ATDC5 cells (obtained from RIKEN BioResource Research Center) were seeded at 1×10^4 cells/well in a microplate containing 0.5 mL of Dulbecco's modified Eagle medium (DMEM)/Ham's F-12 medium (manufactured by FUJIFILM Wako Pure Chemical Corporation), and cultured at 37° C. in the presence of 5% by volume carbon dioxide.
On days 3, 6, 9, 12, 15, 18 and 21 of culture, transferrin and sodium selenite, which are differentiation-inducing reagents, were each added to the aforementioned medium at final concentrations of 10 μg/mL and 30 nM, respectively, and further, the medium was replaced with a medium to which liquiritin was added at each final concentration of 5 μM, 10 μM, or 20 μM, and the culture was continued.
The case of same treatment without adding liquiritin (liquiritin concentration=0 μM) was used as a control. […]
The content of DNA in the above-mentioned sample was measured using a DNA quantification kit (“DNA Assay Kit”, manufactured by Cosmo Bio Company, Limited) (n=4 for each) and used as an index of cell number. […]

[3] = test system: chondrogenic progenitor ATDC5 cells; experiment: Measurement of number of cells under microscope
Protocol: Using chondrogenic progenitor ATDC5 cells, the effects of liquiritin on the differentiation of chondrogenic progenitor cells into chondrocytes, proliferation of chondrocytes, and production of cartilaginous matrix were investigated as follows. ATDC5 cells (obtained from RIKEN BioResource Research Center) were seeded at 1×10^4 cells/well in a microplate containing 0.5 mL of Dulbecco's modified Eagle medium (DMEM)/Ham's F-12 medium (manufactured by FUJIFILM Wako Pure Chemical Corporation), and cultured at 37° C. in the presence of 5% by volume carbon dioxide. […] In addition, on day 24 of culture, the cells were washed with 10 mM phosphate buffered saline (pH=7.4), the cells were detached using 0.25 (w/v) % trypsin-1 mM tetrasodium ethylenediaminetetraacetate solution (manufactured by FUJIFILM Wako Pure Chemical Corporation), the number of cells in the cell suspension was observed under an inverted culture microscope (CK40, manufactured by Olympus Corporation) (magnification=10x), and the number of cells was measured (n=4 for each). […]

[4] = test system: chondrogenic progenitor ATDC5 cells; experiment: Quantification of intracellular sulfated glycosaminoglycan (dimethylmethylene blue, absorbance at 525 nm)
Protocol: as §1, §2
Each sample (20 μL) was blended with 200 μL of a 16 mg/L dimethylmethylene blue solution (prepared with an aqueous solution (pH=3.0) containing 40 mM glycine, 27 mM sodium chloride, and 10 mM acetic acid), and the absorbance at 525 nm was measured and sulfated glycosaminoglycan in the sample was quantified (n=4 for each). The quantification results are shown in FIG. 2 as meantstandard deviation. As regards the quantification results, an unpaired t-test was performed between each group added with liquiritin at the above-mentioned concentration and the control.

O=C1C[C@@H](c2ccc(O[C@@H]3O[C@H](CO)[C@@H](O)[C@H](O)[C@H]3O)cc2)Oc2cc(O)ccc21 [liquiritin, (2S)-2,3-dihydro-7-hydroxy-2-[4-(β-D-glucopyranosyloxy)phenyl]-4H-1-benzopyran-4-one]
absorbance at 620 nm of solubilized Alcian blue dye compared to the control ([1]; 20 μM liquiritin, P<0.05 (FIG. 1)): significant increase | glycosaminoglycan stained with Alcian blue in cultured cells ([1]; not less than 10 μM liquiritin, vs control (FIG. 1)): increased | content of DNA in the cell digestive fluid (index of cell number) [2]: increased with the addition concentration | cell number on day 24 of culture ([3]; at 10 μM and 20 μM significant at P<0.05 vs control (FIG. 4)): increased with the addition concentration | cytotoxicity ([3]; concentration range 10 μM to 20 μM, ATDC5 cells): does not exhibit cytotoxicity | amount of sulfated glycosaminoglycan contained in cell digestive fluid ([4]; 5 μM to 20 μM liquiritin, day 24 of culture, P<0.01 vs control (FIG. 2)): significant increase | concentration promoting production of glycosaminoglycan by chondrocytes (as low as) ([4]; ATDC5 cells, conclusion from results): 5 µM
